Experiment [1] deals with T1, HsATC (Homo sapiens, UniProt P27708).
T1 construct: ATCase domain of CAD; made in house; host or cells: E. coli BL21 star
T1 sequence (P27708 1918-2225 limits assumed): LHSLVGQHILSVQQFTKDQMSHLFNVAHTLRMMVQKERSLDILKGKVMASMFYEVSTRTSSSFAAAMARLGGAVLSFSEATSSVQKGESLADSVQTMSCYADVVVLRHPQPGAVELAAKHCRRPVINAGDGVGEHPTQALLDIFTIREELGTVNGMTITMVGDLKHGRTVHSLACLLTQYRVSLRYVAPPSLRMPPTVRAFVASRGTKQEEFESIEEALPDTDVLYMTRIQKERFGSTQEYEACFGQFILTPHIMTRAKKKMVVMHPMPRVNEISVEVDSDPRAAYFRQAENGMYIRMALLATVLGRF
Description: HsATC activity assay. The following applies: in vitro activity assay. The class given is biochemical.

For experiment [2], the system named is P. falciparum 3D7. Description: Growth-inhibition assay of P. falciparum (SYBR Green I). In kind it is cell-based, Plasmodium falciparum. The following applies: P. falciparum 3D7, 96 h, read-out: EC50 against blood stage 3D7 cultures. As for the experimental part:
488Cell culture and growth-inhibition assay of P. falciparum. P. falciparum 3D7 parasites
489(Wellcome Trust Dundee) were maintained in continuous culture at 37 °C and an atmosphere
490consisting of 90% N 2, 5% O2, and 5% CO2 as described previously 30 with modifications.31
491Parasites were maintained in 25 mM 4-(2-hydroxyethyl)-1-piperazineethanesulfonic acid (HEPES)
492and 11.9 mM sodium bicarbonate buffered RPMI 1640 medium supplemented with D-glucose
493(11 mM), hypoxanthine, AlbuMAX-I (0.5% w/v), and 10 µg/mL gentamicin. 0+ blood was
494provided by “Hospital Novo Atibaia” (Brazil) in agreement with the ethics committee at ICB-USP.
495Compounds were tested for their inhibitory effect against P. falciparum 3D7 conducting SYBR
496Green I (Invitrogen) drug assays as reported. 32, 33 Briefly, two-fold serial dilutions of compounds
497were prepared in 96-well plates starting from 100 and 20 µM in technical triplicate and incubated
498for 96 h under normal growth conditions using an initial parasitemia of 0.5% and a hematocrit of
4992% in a volume of 100 µL per well. Parasite proliferation was measured by quantifying DNA via
500SYBR Green I emitted fluorescence in the wells after addition of 100 µL lysis buffer supplemented
501with SYBR Green I (0.02% v/v) and incubation for 1 h at room temperature in the dark.
502Fluorescence was quantified using a CLARIOstar plate reader (BMG Labtech, Germany) at
503excitation and emission wavelength bands of 485 (± 9) and 530 (± 12) nm, respectively. Focal and
504gain adjustment was performed using the negative controls (highest expected fluorescence signal).
505Data was acquired via the CLARIOstar (V5.20) and MARS software, manually normalized, and
506plotted using the nonlinear regression curve fit implemented in GraphPad Prism as described below
507in more detail. Non-treated parasites, highest solvent concentration on parasites, and highest drug
508concentration in medium were used as controls for maximal growth, solvent control, and native
509drug fluorescence, respectively.
511Nonlinear regression fit and analysis of dose-response drug assays. Nonlinear regression as
512implemented in GraphPad Prism 8.4.3 (log(inhibitor) vs. response – Variable slope (four
513parameters)) was used to fit the measured data to interpolate the IC 50 value from the curve. No
514specific model was applied. Data was pre-processed by min-max-scaling according to the
517where y is the fluorescence signal in each well, y minimum the background fluorescence, and ymaximum
518the highest measured fluorescence signal in the untreated wells. Drug concentrations (in µM) were
519transformed to the log(10)of the values. Means of each independent experiment were plotted as
520individual values, and the SD of the mean from the means shown as error bars. The test for
521homoscedasticity was performed to confirm if no weighting of values was appropriate.

The mark [3] stands for this setting: 10 mM L-aspartate, 5 mM carbamoyl phosphate, read-out: HsATC IC50.

Where “and” joins values, the source holds several entries; their conditions need not be identical. Identical values can stand only once. Like-named read-outs stand apart in the source and are kept apart here.

Turning to `COc1cccc(CCNC(=O)c2cc(-c3ccccc3)sc2NC(=O)OC(C)(C)C)c1` [BDA-24], the IC50 in experiment [1] (setting [3]) was 0.316 µM. For the same compound, the EC50 in experiment [2] is 2 µM and 2.03 µM.
In the case of `CC(C)(C)OC(=O)Nc1sc(-c2ccccc2)cc1C(=O)NCCO` [BDA-14], the IC50 in experiment [1] (setting [3]) turned out to be 0.137 µM. Besides, in experiment [2], the EC50 was 42.5 µM.
Take `CC(C)(C)OC(=O)Nc1sc(-c2ccccc2)cc1C(=O)NCCc1ccc(O)cc1` [BDA-11]: the IC50 in experiment [1] (setting [3]) came out at 0.116 µM. Besides, the EC50 in experiment [2] was 3.4 µM and 3.37 µM.
With `CC(C)(C)OC(=O)Nc1sc(-c2ccccc2)cc1C(=O)NCCc1ccccc1` [BDA-04], the IC50 is 2.84 µM in experiment [1] (setting [3]); 2.8 µM and 2.84 µM in experiment [1] (n = 3, read-out: IC50 against HsATC). Moreover, the EC50 came out at 2.43 µM in experiment [2] and 2.4 µM in experiment [2] (Plasmodium falciparum, 3D7, 96 h).

As usually defined, the IC50 is the concentration at which inhibition is half-maximal. As usually defined, the EC50 is the concentration at which the effect is half-maximal.

These data come from publication PMC9585585, “Discovery of Small-Molecule Allosteric Inhibitors of PfATC as Antimalarials” (Journal of the American Chemical Society, 2022).
